For data set [1], the system named is OVCAR-3 cells. The data set can be described thus: Anti-proliferative effect on OVCAR-3 cells (sulforhodamine B protein dye stain). Type of data set: cell-based. Conditions: Homo sapiens. As for the experimental part: The anti-proliferative effect of daunorubicin, doxorubicin and idarubicin, and of the prodrugs of examples 1 to 6 on OVCAR-3 cells was determined by measuring cell growth with a protein dye stain (H. J. Haisma et al. Br. J. Cancer 1992, 66, 474-478. Cells were harvested with 0.25 trypsin and 0.2% EDTA in PBS to obtain a single cell suspension and seeded in 96-wells tissue culture plates (2×10^6 cells/mL 10 μL/well, 3 wells per concentration). Drug or prodrug was added (10 μL/well) at different concentrations with a range of 3 or more logs. After incubation for 24 hours, 200 μL of culture medium (supplemented DMEM) was added and the cells were grown for another 72 hours. Cells were fixed with 25% trichloroacetic acid for 1 hour at 4° C. and washed with water. After staining the cells with 0.4% sulforhodamine B in 1% (v/v) acetic acid for 15 min. at room temperature, they were washed with 1% acetic acid and air-dried. The bound dye was solubilized with 10 mM unbuffered Tris and the absorbance was read at 492 nm. The absorbance was linear with cell concentrations from 1,000 to 200,000 cells/well. Separate wells were fixed 24 hours after seeding to substract background staining. The anti-proliferative effects were determined and expressed as IC50 values which are the (pro)drug concentrations that gave 50% growth inhibition when compared to control cell growth.

For data set [2], the target named is T1, β-glucuronidase (Homo sapiens, UniProt P08236).
T1 sequence (P08236 23-651): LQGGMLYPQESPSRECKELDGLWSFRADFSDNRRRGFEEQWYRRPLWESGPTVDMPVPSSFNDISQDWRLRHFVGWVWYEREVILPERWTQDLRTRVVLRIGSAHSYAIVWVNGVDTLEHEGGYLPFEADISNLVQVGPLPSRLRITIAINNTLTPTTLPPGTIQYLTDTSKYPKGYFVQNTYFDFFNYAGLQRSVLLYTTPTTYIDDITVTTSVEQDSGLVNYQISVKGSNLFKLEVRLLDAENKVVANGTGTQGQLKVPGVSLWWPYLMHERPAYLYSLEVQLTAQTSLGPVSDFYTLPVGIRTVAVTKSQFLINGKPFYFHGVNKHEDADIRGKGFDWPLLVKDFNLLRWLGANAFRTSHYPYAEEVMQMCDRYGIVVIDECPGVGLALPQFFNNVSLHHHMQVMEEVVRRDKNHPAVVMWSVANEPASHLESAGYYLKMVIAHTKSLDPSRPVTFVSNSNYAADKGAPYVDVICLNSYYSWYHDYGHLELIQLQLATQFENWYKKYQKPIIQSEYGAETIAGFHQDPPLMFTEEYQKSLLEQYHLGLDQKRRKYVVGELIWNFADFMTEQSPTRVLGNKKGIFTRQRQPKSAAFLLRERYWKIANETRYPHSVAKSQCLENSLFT
Description: Enzyme hydrolysis half-life with β-glucuronidase. In kind it is biochemical. Conditions: 100 μM prodrug, pH 6.8, 0.03 U/mL β-glucuronidase, 37° C.; read-out: T1/2 (min.) of enzyme hydrolysis. The protocol:
(§1) Half-lifes of enzyme hydrolysis were determined by incubating 100 μM prodrug at pH =6.8 with 0.03 U/mL β-glucuronidase or 0.3 U/mL β-glucosidase or β-galactosidase at 37° C.

Data set [3] is described as follows: Enzyme hydrolysis half-life with β-glucosidase. In kind it is biochemical. Conditions: 100 μM prodrug, pH 6.8, 0.3 U/mL β-glucosidase, 37° C.; read-out: T1/2 (min.) of enzyme hydrolysis. The protocol:
as §1

Setting [4] is: OVCAR-3 cells, 24 hours incubation with (pro)drug, then grown another 72 hours, read-out: IC50 (μM), (pro)drug concentration giving 50% growth inhibition.
Where [5] appears, read: OVCAR-3, read-out: IC50 (μM), (pro)drug concentration giving 50% growth inhibition.

Counter-ions that a name gives are not always drawn. Like-named read-outs stand apart in the source and are kept apart here.

As for `COc1cccc2c1C(=O)c1c(O)c3c(c(O)c1C2=O)C[C@@](O)(C(C)=O)C[C@@H]3O[C@H]1C[C@H](NC(=O)OCc2ccccc2NC(=O)O[C@@H]2O[C@H](C(=O)O)[C@@H](O)[C@H](O)[C@H]2O)[C@H](O)[C@H](C)O1` [1a-ortho, N-[2-(daunorubicin-N-carbonyl-oxymethyl)phenyl] O-β-glucuronyl carbamate sodium salt], in data set [1] (setting [4]), the IC50 was 20 µM. For the same molecule, the half-life at 100 µM in data set [2] came to 2.08 h. For `COc1cccc2c1C(=O)c1c(O)c3c(c(O)c1C2=O)C[C@@](O)(C(C)=O)C[C@@H]3O[C@H]1C[C@H](NC(=O)OCc2ccc(NC(=O)O[C@@H]3O[C@H](C(=O)O)[C@@H](O)[C@H](O)[C@H]3O)cc2)[C@H](O)[C@H](C)O1` [1a-para, N-[4-(daunorubicin-N-carbonyl-oxymethyl)phenyl] O-β-glucuronyl carbamate sodium salt], in that order: 22 µM and 2.25 h. On to `COc1cccc2c1C(=O)c1c(O)c3c(c(O)c1C2=O)C[C@@](O)(C(=O)CO)C[C@@H]3O[C@H]1C[C@H](NC(=O)OCc2ccc(NC(=O)O[C@@H]3O[C@H](C(=O)O)[C@@H](O)[C@H](O)[C@H]3O)cc2)[C@H](O)[C@H](C)O1` [1b-para, N-[4-(doxorubicin-N-carbonyl-oxymethyl)phenyl] O-β-glucuronyl carbamate sodium salt], for which the IC50 in data set [1] (setting [4]) is greater than 10 µM. Moreover, in data set [2], the half-life at 100 µM was 2.83 h. The corresponding values for `CC(=O)[C@]1(O)Cc2c(O)c3c(c(O)c2[C@@H](O[C@H]2C[C@H](NC(=O)OCc4ccc(NC(=O)O[C@@H]5O[C@H](C(=O)O)[C@@H](O)[C@H](O)[C@H]5O)cc4)[C@H](O)[C@H](C)O2)C1)C(=O)c1ccccc1C3=O` [1c-para, N-[4-(idarubicin-N-carbonyl-oxymethyl)phenyl] O-β-glucuronyl carbamate sodium salt] are greater than 1 µM and 2 h. Consider `COc1cccc2c1C(=O)c1c(O)c3c(c(O)c1C2=O)C[C@@](O)(C(C)=O)C[C@@H]3O[C@H]1C[C@H](NC(=O)OCc2ccc(NC(=O)O[C@@H]3O[C@H](CO)[C@@H](O)[C@H](O)[C@H]3O)cc2)[C@H](O)[C@H](C)O1` [1d-para, N-[4-(daunorubicin-N-carbonyl-oxymethyl)phenyl] O-β-glucosyl carbamate], for which the IC50 in data set [1] (setting [4]) was 20 µM. In addition, in data set [3], the half-life at 100 µM is greater than 8.33 h. For `COc1cccc2c1C(=O)c1c(O)c3c(c(O)c1C2=O)C[C@@](O)(C(C)=O)C[C@@H]3O[C@H]1C[C@H](N)[C@H](O)[C@H](C)O1` [12a, daunorubicin, reference compound], in data set [1] (setting [5]), the IC50 was 1.2 µM.

As to `COc1cccc2c1C(=O)c1c(O)c3c(c(O)c1C2=O)C[C@@](O)(C(=O)CO)C[C@@H]3O[C@H]1C[C@H](N)[C@H](O)[C@H](C)O1` [12b, doxorubicin, reference compound], the IC50 in data set [1] (setting [5]) amounted to 1 µM.

Regarding `CC(=O)[C@]1(O)Cc2c(O)c3c(c(O)c2[C@@H](O[C@H]2C[C@H](N)[C@H](O)[C@H](C)O2)C1)C(=O)c1ccccc1C3=O` [12c, idarubicin, reference compound], in data set [1] (setting [4]), the IC50 came out at 0.1 µM.

Source of the values: patent US5710135A, “Anthracycline prodrugs, method for preparation as well as their use in selective chemotherapy” (Pharmachemie B.V., priority 1995, dated 1998).
